This experiment concerns the target T1, human CGT (ceramide galactosyltransferase), CHO/CGT lysate (Homo sapiens, UniProt Q16880).
T1 construct: Full-length human CGT cDNA was cloned into the BamH1/Xho1 site of pcDNA3.1 (+); expressed in transfected cells; host or cells: Chinese hamster ovary (CHO) cells; lysate prepared with M-PER
T1 sequence (Q16880 21-541): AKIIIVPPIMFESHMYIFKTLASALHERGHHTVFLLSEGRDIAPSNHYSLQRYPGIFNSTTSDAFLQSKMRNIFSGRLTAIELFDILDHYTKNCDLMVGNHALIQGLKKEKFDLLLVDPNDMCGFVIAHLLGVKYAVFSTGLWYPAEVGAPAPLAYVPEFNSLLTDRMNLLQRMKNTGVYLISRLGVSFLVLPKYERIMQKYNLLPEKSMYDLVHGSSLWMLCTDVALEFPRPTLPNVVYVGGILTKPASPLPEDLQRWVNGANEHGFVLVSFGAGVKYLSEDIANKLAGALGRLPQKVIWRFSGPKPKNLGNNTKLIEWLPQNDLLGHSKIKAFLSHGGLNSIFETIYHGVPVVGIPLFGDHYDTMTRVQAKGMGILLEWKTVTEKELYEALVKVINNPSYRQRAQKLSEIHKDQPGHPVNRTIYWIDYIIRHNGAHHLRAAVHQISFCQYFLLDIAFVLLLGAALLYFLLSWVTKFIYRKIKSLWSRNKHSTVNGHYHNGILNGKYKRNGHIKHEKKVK
In words: CGT enzyme assay, RapidFire/MS/MS readout (Table 1 ranges with one asterisk *). The following applies: RapidFire method (range with one asterisk *). Type of experiment: biochemical. The gist of the method:
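IC50s come from variable-slope dose-response fits of internal-standard-normalized C6-NBD-dihydro-galactosylceramide, measured by RapidFire/MS/MS (ESI negative). Reactions: 1 h, 37 °C, human CGT-expressing CHO lysate (4 μg), 0.001–50 μM compound, 10 μM NBD-dihydro-ceramide, 17.5 μM UDP-galactose, 0.5% DMSO, pH 7.2; 0.01% Tween 80 added for ** values.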

Structures are written as SMILES. Structures can show the parent of a compound that is named as a salt. Where only a bound is given, the exact number is not on record here.

One may read the IC50 as the concentration at which inhibition is half-maximal. A higher IC50 goes with a need for much substance. Regarding `NC1CCN(C(=O)[C@H](NS(=O)(=O)c2ccc3cc(OC4CCCC4)ccc3c2)C(F)(F)c2ccc(Cl)s2)CC1` [Compound 131-2, (S)—N-(3-(4-aminopiperidin-1-yl)-1-(5-chlorothiophen-2-yl)-1,1-difluoro-3-oxopropan-2-yl)-6-(cyclopentyloxy)naphthalene-2-sulfonamide], the IC50 was 1 to 10 µM.

Consider `N[C@H]1CCCN(C(=O)[C@@H](NS(=O)(=O)c2ccc3cc(OC4CCCC4)ccc3c2)C(F)(F)c2ccc(Br)cc2)C1` [Compound 132-1, N—((R)-3-((S)-3-aminopiperidin-1-yl)-1-(4-bromophenyl)-1,1-difluoro-3-oxopropan-2-yl)-6-(cyclopentyloxy)naphthalene-2-sulfonamide trifluoroacetate], for which the IC50 lay in the range of 1 to 10 µM.

`N[C@H]1CCCN(C(=O)[C@H](NS(=O)(=O)c2ccc3cc(OC4CCCC4)ccc3c2)C(F)(F)c2ccc(Br)cc2)C1` [Compound 132-2, N—((S)-3-((S)-3-aminopiperidin-1-yl)-1-(4-bromophenyl)-1,1-difluoro-3-oxopropan-2-yl)-6-(cyclopentyloxy)naphthalene-2-sulfonamide trifluoroacetate] displayed an IC50 of 10 to 30 µM.

In turn, `NC1CC2CCC(C1)N2C(=O)[C@@H](NC(=O)C(=O)c1ccc2cc(OC3CCCC3)ccc2c1)C(F)(F)c1ccc(-c2ccc(Cl)cc2)cc1` (stereo partly drawn) [Compound 133-1, N-((2R)-3-(3-amino-8-azabicyclo[3.2.1]octan-8-yl)-1-(4′-chloro-[1,1′-biphenyl]-4-yl)-1,1-difluoro-3-oxopropan-2-yl)-2-(6-(cyclopentyloxy)naphthalen-2-yl)-2-oxoacetamide trifluoroacetate] gave an IC50 of 1 to 10 µM.

In turn, `NC1CC2CCC(C1)N2C(=O)[C@H](NC(=O)C(=O)c1ccc2cc(OC3CCCC3)ccc2c1)C(F)(F)c1ccc(-c2ccc(Cl)cc2)cc1` (stereo partly drawn) [Compound 133-2, N-((2S)-3-(3-amino-8-azabicyclo[3.2.1]octan-8-yl)-1-(4′-chloro-[1,1′-biphenyl]-4-yl)-1,1-difluoro-3-oxopropan-2-yl)-2-(6-(cyclopentyloxy)naphthalen-2-yl)-2-oxoacetamide trifluoroacetate] gave an IC50 of 30 to 100 µM.

Compound `NC1CCN(C(=O)[C@@H](NC(=O)C(=O)c2ccc(OCC3CCCCC3)cc2)C(F)(F)c2ccc(-c3ccc(Cl)cc3)cc2)CC1` [Compound 134-1, (R)—N-(3-(4-aminopiperidin-1-yl)-1-(4′-chloro-[1,1′-biphenyl]-4-yl)-1,1-difluoro-3-oxopropan-2-yl)-2-(4-(cyclohexylmethoxy)phenyl)-2-oxoacetamide trifluoroacetate] showed an IC50 of 10 to 30 µM.

`NC1CCN(C(=O)[C@H](NC(=O)C(=O)c2ccc(OCC3CCCCC3)cc2)C(F)(F)c2ccc(-c3ccc(Cl)cc3)cc2)CC1` [Compound 134-2, (S)—N-(3-(4-aminopiperidin-1-yl)-1-(4′-chloro-[1,1′-biphenyl]-4-yl)-1,1-difluoro-3-oxopropan-2-yl)-2-(4-(cyclohexylmethoxy)phenyl)-2-oxoacetamide trifluoroacetate] displayed an IC50 of 30 to 100 µM.

Take `COc1cc(C(F)(F)[C@H](NS(=O)(=O)c2ccc3cc(OC4CCCC4)ccc3c2)C(=O)N2C3CCC2CC(N)C3)ccc1-c1ccc(Cl)cc1` (stereo partly drawn) [Compound 135-1, N-((2R)-3-(3-amino-8-azabicyclo[3.2.1]octan-8-yl)-1-(4′-chloro-2-methoxy-[1,1′-biphenyl]-4-yl)-1,1-difluoro-3-oxopropan-2-yl)-6-(cyclopentyloxy) naphthalene-2-sulfonamide trifluoroacetate]: the IC50 was < 1 µM.

Take `COc1cc(C(F)(F)[C@@H](NS(=O)(=O)c2ccc3cc(OC4CCCC4)ccc3c2)C(=O)N2C3CCC2CC(N)C3)ccc1-c1ccc(Cl)cc1` (stereo partly drawn) [Compound 135-2, N-((2S)-3-(3-amino-8-azabicyclo[3.2.1]octan-8-yl)-1-(4′-chloro-2-methoxy-[1,1′-biphenyl]-4-yl)-1,1-difluoro-3-oxopropan-2-yl)-6-(cyclopentyloxy)naphthalene-2-sulfonamide trifluoroacetate]: the IC50 was 1 to 10 µM.

In turn, `NC1CC2CCC(C1)N2C(=O)[C@@H](NC(=O)[C@H](O)c1ccc2cc(OC3CCCC3)ccc2c1)C(F)(F)c1ccc(-c2ccc(Cl)cc2)cc1` (stereo partly drawn) [Compound 136-1, (2R)—N-((2R)-3-(3-amino-8-azabicyclo[3.2.1]octan-8-yl)-1-(4′-chloro-[1,1′-biphenyl]-4-yl)-1,1-difluoro-3-oxopropan-2-yl)-2-(6-(cyclopentyloxy)naphthalen-2-yl)-2-hydroxyacetamide trifluoroacetate] showed an IC50 of 1 to 10 µM.

For the compound `NC1CC2CCC(C1)N2C(=O)[C@H](NC(=O)[C@@H](O)c1ccc2cc(OC3CCCC3)ccc2c1)C(F)(F)c1ccc(-c2ccc(Cl)cc2)cc1` (stereo partly drawn) [Compound 136-2, (2S)—N-((2S)-3-(3-amino-8-azabicyclo[3.2.1]octan-8-yl)-1-(4′-chloro-[1,1′-biphenyl]-4-yl)-1,1-difluoro-3-oxopropan-2-yl)-2-(6-(cyclopentyloxy)naphthalen-2-yl)-2-hydroxyacetamide trifluoroacetate], the IC50 lay in the range of 30 to 100 µM.

Take `NC1CC2CCC(C1)N2C(=O)[C@H](NC(=O)[C@H](O)c1ccc2cc(OC3CCCC3)ccc2c1)C(F)(F)c1ccc(-c2ccc(Cl)cc2)cc1` (stereo partly drawn) [Compound 136-4, (2R)—N-((2S)-3-(3-amino-8-azabicyclo[3.2.1]octan-8-yl)-1-(4′-chloro-[1,1′-biphenyl]-4-yl)-1,1-difluoro-3-oxopropan-2-yl)-2-(6-(cyclopentyloxy)naphthalen-2-yl)-2-hydroxyacetamide trifluoroacetate]: the IC50 fell in the range of 30 to 100 µM.

In turn, `O=C([C@@H](NS(=O)(=O)c1ccc2cc(OC3CCCC3)ccc2c1)C(F)(F)c1ccc(-c2ccc(Cl)cc2)cc1)N1CCNCC1` [Compound 137-1, (R)—N-(1-(4′-chloro-[1,1′-biphenyl]-4-yl)-1,1-difluoro-3-oxo-3-(piperazin-1-yl)propan-2-yl)-6-(cyclopentyloxy)naphthalene-2-sulfonamide trifluoroacetate] had an IC50 of 1 to 10 µM.

As to `O=C([C@H](NS(=O)(=O)c1ccc2cc(OC3CCCC3)ccc2c1)C(F)(F)c1ccc(-c2ccc(Cl)cc2)cc1)N1CCNCC1` [Compound 137-2, (S)—N-(1-(4′-chloro-[1,1′-biphenyl]-4-yl)-1,1-difluoro-3-oxo-3-(piperazin-1-yl)propan-2-yl)-6-(cyclopentyloxy)naphthalene-2-sulfonamide trifluoroacetate], the IC50 was in the range of 10 to 30 µM.

In the case of `NCC1CCN(C(=O)[C@@H](NS(=O)(=O)c2ccc3cc(OC4CCCC4)ccc3c2)C(F)(F)c2ccc(-c3ccc(Cl)cc3)cc2)CC1` [Compound 138-1, (R)—N-(3-(4-(aminomethyl)piperidin-1-yl)-1-(4′-chloro-[1,1′-biphenyl]-4-yl)-1,1-difluoro-3-oxopropan-2-yl)-6-(cyclopentyloxy)naphthalene-2-sulfonamide trifluoroacetate], the IC50 was < 1 µM.

`NCC1CCN(C(=O)[C@H](NS(=O)(=O)c2ccc3cc(OC4CCCC4)ccc3c2)C(F)(F)c2ccc(-c3ccc(Cl)cc3)cc2)CC1` [Compound 138-2, (S)—N-(3-(4-(aminomethyl)piperidin-1-yl)-1-(4′-chloro-[1,1′-biphenyl]-4-yl)-1,1-difluoro-3-oxopropan-2-yl)-6-(cyclopentyloxy)naphthalene-2-sulfonamide trifluoroacetate] gave an IC50 of 1 to 10 µM.

As to `N[C@@H]1CCN(C(=O)[C@@H](NS(=O)(=O)c2ccc3cc(OC4CCCC4)ccc3c2)C(F)(F)c2ccc(Br)cc2)C1` [Compound 139-1, N—((R)-3-((R)-3-aminopyrrolidin-1-yl)-1-(4-bromophenyl)-1,1-difluoro-3-oxopropan-2-yl)-6-(cyclopentyloxy)naphthalene-2-sulfonamide], the IC50 was < 1 µM.

In turn, `N[C@@H]1CCN(C(=O)[C@H](NS(=O)(=O)c2ccc3cc(OC4CCCC4)ccc3c2)C(F)(F)c2ccc(Br)cc2)C1` [Compound 139-2, N—((S)-3-((R)-3-aminopyrrolidin-1l-yl)-1-(4-bromophenyl)-1,1-difluoro-3-oxopropan-2-yl)-6-(cyclopentyloxy)naphthalene-2-sulfonamide] showed an IC50 of 1 to 10 µM.

Compound `N[C@H]1CCN(C(=O)[C@@H](NS(=O)(=O)c2ccc3cc(OC4CCCC4)ccc3c2)C(F)(F)c2ccc(Br)cc2)C1` [Compound 140-1, N—((R)-3-((S)-3-aminopyrrolidin-1-yl)-1-(4-bromophenyl)-1,1-difluoro-3-oxopropan-2-yl)-6-(cyclopentyloxy)naphthalene-2-sulfonamide] gave an IC50 of 1 to 10 µM.

In turn, `N[C@H]1CCN(C(=O)[C@H](NS(=O)(=O)c2ccc3cc(OC4CCCC4)ccc3c2)C(F)(F)c2ccc(Br)cc2)C1` [Compound 140-2, N—((S)-3-((S)-3-aminopyrrolidin-1-yl)-1-(4-bromophenyl)-1,1-difluoro-3-oxopropan-2-yl)-6-(cyclopentyloxy)naphthalene-2-sulfonamide] registered an IC50 of 10 to 30 µM.

The record behind these values is patent US20190322676A1, “CERAMIDE GALACTOSYLTRANSFERASE INHIBITORS FOR THE TREATMENT OF DISEASE” (BioMarin Pharmaceutical Inc., priority 2016, published 2019).
